Measured values taken from patent US10196671B2, “Assay method for the detection of viable microbial cells in a sample” (3M INNOVATIVE PROPERTIES COMPANY, priority 2006, dated 2019).

What was measured:
[1] = molecular target: T1, apyrase (Solanum tuberosum, UniProt P80595)
Procedure: A loop was taken from this plate and transferred to 10 ml Tryptone Soya Broth and grown at 30° C. for exactly 40 hours.
1.3. […] Cells were washed twice in ice-cold Reverse Osmosis water in centrifuge (4500 rpm for 10 mins), resuspended in 10 ml cold Reverse Osmosis water and stored in the fridge.
(§1) Cells for the experiment were prepared using a 100× dilution of this stock with a sterile solution of glucose (10 g/l) and MgCl2 (5 mM) at room temperature. Cells were diluted into this solution at least 20 minutes prior to starting each experiment to allow adaptation to the new conditions.
(§2) 2. 1 ml of the above cell suspension was added to a cuvette.

[2] = molecular target: T1, apyrase; remark: listed apart in the source
Procedure: (§3) 1. Leuconostoc sp MD 110 was grown by streaking a bead onto de Man Rogosa Sharpe agar to revive bead for stock (place in 30° C. incubator overnight).
a. A loop was taken from this plate and transferred to 10 ml Tryptone Soya Broth and grown at 30° C. for exactly 40 hours.
as §1, with “b. […] Cells were washed twice in ice-cold Reverse Osmosis water in centrifuge (4500 rpm for 10 mins), resuspended in 10 ml cold Reverse Osmosis water and stored in the fridge. c. Cells for” for “Cells for”
d. A luciferase/luciferin reagent formulated with a detergent-resistant luciferase (Promega, Ultraglo) (Liquid Lysate) enzyme was reconstituted in 17.5 ml phosphate buffer pH 7.75.
as §2
3. The suspension was then treated with 1 ml of reconstituted apyrase 0.96 units per ml, and […] of ATP (10^−7M) was added and left for 15 minutes at room temperature.
(§4) 4. Two 100 μl aliquots of the treated suspension was transferred to clean cuvettes.
5. 100 μl of the luciferase/luciferin reagent formulated with a detergent-resistant luciferase (Promega, Ultraglo)/phosphate luciferase was added to each of the cuvettes.
6. To the remaining 2 cuvettes 100 μl of a solution of long chain fatty acid ethoxylates (the extractant) was added and a timer started.
7. Cuvette 1 was read in a luminometer after 5 minutes extraction time.
8. Cuvette 1 was removed from the luminometer and 10 μl of 10^−7M ATP was added to standardise.
9. The sample was returned to the luminometer and read again, then read 5 consecutive times in a row in order to determine the final kinetics of the reaction.
10. After a further five minutes steps 9-11 were repeated for cuvette 2.
11. For the control steps 4 to 13 were repeated but using a luciferase/luciferin reagent formulated with a detergent-resistant luciferase (Promega, Ultraglo) reconstituted in 25 mM HEPES buffer pH 7.75.

[3] = molecular target: T1, apyrase; remark: listed apart in the source
Procedure: as §3
1.1. A loop was taken from this plate and transferred to 10 ml Tryptone Soya Broth and grown at 30° C. for exactly 40 hours.
Cells were washed twice in ice-cold Reverse Osmosis water in centrifuge (4500 rpm for 10 mins), resuspended in 10 ml cold Reverse Osmosis water and stored in the fridge.
(§5) 1.3. Cells for the experiment were prepared using a 100× dilution of this stock with a sterile solution of glucose (10 g/l) and MgCl2 (5 mM) at room temperature. Cells were diluted into this solution at least 20 minutes prior to starting each experiment to allow adaptation to the new conditions.
A special luciferase/luciferin reagent formulated with a detergent-resistant luciferase (Promega, Ultraglo) enzyme was prepared. This was reconstituted in 17.5 ml of 30 mM phosphate /10 g/l a solution of long chain fatty acid ethoxylates.
as §2
3. The suspension was then treated with 1 ml of reconstituted apyrase 0.96 units per ml, and 10 μl of ATP (10^−7M) was added and left for 15 minutes at room temperature.
as §4
5. To these two cuvettes 100 μl of the luciferase/luciferin reagent formulated with a detergent-resistant luciferase (Promega, Ultraglo) Ultraglo/phosphate/solution of long chain fatty acid ethoxylates was added.
(§6) 6. After 5 minutes extraction time Cuvette 1 was read in a luminometer.
(§7) 7. Cuvette 1 was removed from the luminometer and 10 μl of 10^−7M ATP was added to standardise.
(§8) 8. The sample was returned to the luminometer and read again, then read 5 consecutive times in a row in order to determine the final kinetics of the reaction.
(§9) 9. After a further five minutes the second water cuvette was read in a luminometer.
(§10) 10. Steps 7-11 were repeated for cuvette 2.
11. For the control, steps 4 to 13 were repeated but using a luciferase/luciferin reagent formulated with a detergent-resistant luciferase (Promega, Ultraglo) made by reconstituting in 25 mM HEPES buffer pH 7.75 with a solution of long chain fatty acid ethoxylates (10 g/l).

[4] = molecular target: T1, apyrase; remark: listed apart in the source
Procedure: as §3
1.1 A loop was taken from this plate and transferred to 10 ml Tryptone Soya Broth and grown at 30° C. for exactly 40 hours.
Cells were washed twice in ice-cold RO water in centrifuge (4500 rpm for 10 mins), resuspended in 10 ml cold Reverse Osmosis water and stored in the fridge.
as §5
1 ml of the above cell suspension was added to a cuvette.
2. The suspension was then treated with 1 ml of reconstituted apyrase 0.96 units per ml, and 10 μl of ATP (10^−7M) was added and left for 15 minutes at room temperature.
3. 2×100 μl aliquots of the treated suspension were added to clean cuvettes.
4. To these 2 cuvettes 20 μl of 100 μM pH 7.75 phosphate solution was added.
5. 100 μl of the extractant (a solution of long chain fatty acid ethoxylates) was added and a timer started.
as §6, §7, §8, §9, §10
11. For the control, steps 4 to 13 were repeated but using 20 μl of Reverse Osmosis water in place of 20 μl phosphate.

T1 sequence (P80595 whole entry, species assumed): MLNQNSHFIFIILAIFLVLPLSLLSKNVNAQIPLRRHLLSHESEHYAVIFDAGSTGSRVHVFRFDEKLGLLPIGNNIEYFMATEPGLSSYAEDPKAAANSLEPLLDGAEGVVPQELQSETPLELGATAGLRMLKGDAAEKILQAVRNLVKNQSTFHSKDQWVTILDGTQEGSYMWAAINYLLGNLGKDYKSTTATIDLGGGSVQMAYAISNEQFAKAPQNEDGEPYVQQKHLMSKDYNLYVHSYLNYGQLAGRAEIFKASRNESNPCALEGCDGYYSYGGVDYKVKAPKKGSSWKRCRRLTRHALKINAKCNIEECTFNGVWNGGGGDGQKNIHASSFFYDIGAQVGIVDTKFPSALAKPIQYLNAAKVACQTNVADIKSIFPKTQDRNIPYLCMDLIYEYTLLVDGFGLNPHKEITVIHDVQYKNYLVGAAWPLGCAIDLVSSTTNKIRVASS

phosphate
rise in RLU from T-5 to T-10 ([1]; 30 mM phosphate mixed with the extractant, after 15 min apyrase 0.96 units per ml, Leuconostoc sp MD 110 suspension): 38% | inhibition of apyrase (kinetics, FIG. 1.3) ([1]; 30 mM phosphate, ATP standard added, consecutive luminometer reads): inhibits the action of apyrase | drop of assay signal (kinetics, FIG. 2.3) ([2]; in 50 seconds after ATP standard, phosphate buffer pH 7.75): 10% | RLU produced after 5 minutes extraction still remaining at T=10 minutes ([2]; luciferase reagent reconstituted in phosphate buffer pH 7.75): 73.7% | amount of ATP at T=10 as percentage of that present at T=5 ([2]; phosphate buffer pH 7.75): 81.3% | amount of ATP at T=5 ([2]; phosphate buffer pH 7.75, T=5 minutes): 0.035 picomoles | amount of ATP remaining at T=10 ([2]; phosphate buffer pH 7.75, T=10 minutes): 0.029 picomoles | amount of ATP per assay higher at T=10 than at T=5 ([3]; 30 mM phosphate in luciferase/extractant reagent): 42% | amount of ATP per assay at T=5 ([3]; 30 mM phosphate in luciferase/extractant reagent, T=5): 0.0052 picomoles | amount of ATP per assay at T=10 ([3]; 30 mM phosphate in luciferase/extractant reagent, T=10): 0.0074 picomoles | increase of RLU values (kinetics) ([3]; in 75 seconds, 30 mM phosphate in luciferase/extractant reagent): 13% | RLU signal higher at T=10 than at T=5 ([3]; luciferase reagent in 30 mM phosphate / 10 g/l long chain fatty acid ethoxylates): 57% | inhibition of apyrase, ATP broken down in 5 minutes (FIG. 4.2) ([4]; 20 μl of 100 μM pH 7.75 phosphate solution): does inhibit apyrase | RLU produced after 5 minutes extraction remaining 5 minutes later ([4]; 20 μl of 100 μM pH 7.75 phosphate solution added before extractant): 100% | level of ATP present in the assay, T-5 to T-10 ([4]; 20 μl of 100 μM pH 7.75 phosphate solution, patent believes it an artifact of the calculation): increased | drop of RLU values (kinetics) ([4]; in 46 seconds, 20 μl of 100 μM pH 7.75 phosphate solution): around 1,400 RLU
